From the supplement of paper PMC3493320 come the findings set out here.

For the assay, the system named is NCI-H295R. The experiment in a line: IC50 (antiproliferative, ATP content). Conditions: 48 h. The method in brief:
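Adrenocortical carcinoma cells in 1536-well plates (1500 per well, serum-free DMEM plus ITS, overnight culture) were exposed for 48 h at 37 °C, 5% CO2 to pin-transferred compounds at 8 final concentrations ranging 0.6 nM to 46 µM. ATP content was then read as CellTiter-Glo luminescence and normalised to vehicle and positive-control wells. The IC50 came from logistic curve fits, and any compound lacking a concentration response was recorded as above the top dose.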
As usually defined, the IC50 is the concentration needed to halve the response being measured. Read a low IC50 as inhibition by little substance. The compound `CC(=O)Oc1c(C)c(C)c2c(c1C)CC[C@@](C)(CCC[C@H](C)CCC[C@H](C)CCCC(C)C)O2` yielded an IC50 of over 46 µM.
In turn, `CCC(C)C(N)C(=O)O` (stereo not given) had an IC50 of over 46 µM.
As to `Cc1onc(-c2ccccc2)c1-c1ccc(S(N)(=O)=O)cc1`, the IC50 was over 46 µM.
The figure for `Cc1ccc(-c2ncc(Cl)cc2-c2ccc(S(C)(=O)=O)cc2)cn1` is over 46 µM; for `CNC(=NC#N)NCCSCc1nc[nH]c1C` it is over 46 µM; for `NC(=O)c1cc[n+](CC2=C(C(=O)[O-])N3C(=O)[C@@H](NC(=O)Cc4cccs4)[C@H]3SC2)cc1` it is over 46 µM.
The figure for `CC(=O)OCC(CCn1cnc2cnc(N)nc21)COC(C)=O` is over 46 µM; for `CCCCCCc1ccc(O)cc1O` it is over 46 µM; for `CNC1=Nc2ccc(Cl)cc2C(c2ccccc2)=[N+]([O-])C1` it is over 46 µM.
The figure for `O=P([O-])([O-])OP(=O)([O-])[O-].[Na+].[Na+].[Na+].[Na+]` is over 46 µM; for `N=C(N)NS(=O)(=O)c1ccc(N)cc1` it is over 46 µM.
Take `OCC(O)CS` (stereo not given): the IC50 is over 46 µM.
`C1CCc2nnnn2CC1` displayed an IC50 of over 46 µM.
Take `CC[C@@H]1C(=O)OC[C@@H]1Cc1cncn1C`: the IC50 was over 46 µM.
In the case of `Oc1cccc(O)c1` it was over 46 µM; in that of `CC(=O)[C@H]1CC[C@H]2[C@@H]3C[C@H](C)C4=CC(=O)CC[C@]4(C)[C@H]3[C@@H](O)C[C@]12C`, over 46 µM; in that of `CCCCNC(=O)NS(=O)(=O)c1ccc(C)cc1`, over 46 µM.
Turning to `COc1ccc(-c2cc(=S)ss2)cc1`, the IC50 was over 46 µM.
With `CC(CN(C)C)CN1c2ccccc2CCc2ccccc21.O=C(O)/C=C\C(=O)O` (stereo not given), the IC50 is over 46 µM.
The figure for `O=C(c1ccc(F)cc1)C1CCN(CCn2c(=O)[nH]c3ccccc3c2=O)CC1` is over 46 µM.
`CCCCNc1ccc(C(=O)OCCOCCOCCOCCOCCOCCOCCOCCOCCOC)cc1` displayed an IC50 of over 46 µM.
The compound `O=C(N[C@@H](CCCCN)C(N[C@@H](C(O)C)C(N[C@H](C(N[C@@H]([C@@H](O)C)C(N[C@@H](CO)C6=O)=O)=O)CC5=CC=CC=C5)=O)=O)[C@@H](NC([C@@H](NC([C@@H](NC([C@H](CC(N)=O)NC([C@H](CCCCN)NC([C@@H](NC(CNC([C@@H](N)C)=O)=O)CSSC[C@@H]([C@@](O)=O)N6)=O)=O)=O)CC4=CC=CC=C4)=O)CC3=CC=CC=C3)=O)CC1=CNC2=C1C=CC=C2` (stereo not given in full) registered an IC50 of over 46 µM.
In turn, `CCN(CCCc1ccccc1)CCCc1ccccc1.O=C(O)CC(O)(CC(=O)O)C(=O)O` yielded an IC50 of over 46 µM.
In the case of `CCN(CC)CCOC(=O)C(C)(c1ccccc1)c1ccccc1`, the IC50 was over 46 µM.
The figure for `Cn1c(CCCC(=O)O)nc2cc(N(CCCl)CCCl)ccc21` is over 46 µM; for `N#CC1(N2CCCCC2)CCCCC1` it is over 46 µM; for `CCN(CC)CCOc1ccccc1C(=O)CCc1ccccc1` it is over 46 µM.
`OC[C@@H](O)[C@@H](O)[C@H](O)[C@H](O)CO`: the IC50 was over 46 µM.
Turning to `C[C@H](Cn1cnc2c(N)ncnc21)OCP(=O)(O)O`, the IC50 was over 46 µM.
In the case of `CC(CC=O)CCCC(C)(C)O` (stereo not given), the IC50 was over 46 µM.
The figure for `CN[C@@H]1[C@@H](O)[C@@H](O[C@@H]2[C@H](O)[C@H](O[C@H]3OC(CN)=CC[C@H]3N)[C@@H](N)C[C@H]2N)OC[C@]1(C)O` is over 46 µM; for `NC(=O)CC[C@@H](N)C(=O)O` it is over 46 µM.
On to `Cc1c(Cl)c(=O)oc2cc(OP(=O)(OCCCl)OCCCl)ccc12`, for which the IC50 was over 46 µM.
Turning to `O=C(N[C@H]([C@H]1O[C@@H]([C@@H]4O)OC(C(O)=O)[C@H]([C@@H]4O)O[C@@H]([C@@H]3NC(C)=O)O[C@@H]([C@H](C3O[C@H]([C@@H]2O)O[C@H]([C@](O)=O)C([C@@H]2O)O)O)CO)C(O[C@@H]([C@H]1O)CO)O)C` (stereo not given in full), the IC50 is over 46 µM.
On to `CN1CCC(OC(=O)C(Oc2ccc(Cl)cc2)Oc2ccc(Cl)cc2)CC1`, for which the IC50 is over 46 µM.
In the case of `CC(C)NCC(O)c1ccc2ccccc2c1` (stereo not given) it was over 46 µM.
Consider `CC(=O)N[C@@H](CC(=O)N[C@@H](CCC(=O)O)C(=O)O)C(=O)O`, for which the IC50 is over 46 µM.
In the case of `Nc1cccc2c1CN(C1CCC(=O)NC1=O)C2=O` (stereo not given), the IC50 was over 46 µM.
Turning to `CCCCC[C@H](O)/C=C/[C@H]1[C@H](O)CC(=O)[C@@H]1CCCCCCC(=O)O`, the IC50 is over 46 µM.
As to `CCOC(C)=O`, the IC50 was over 46 µM.
Regarding `CN1c2ccccc2C(NCCCCCCC(=O)[O-])c2ccc(Cl)cc2S1(=O)=O.[Na+]` (stereo not given), the IC50 was over 46 µM.
Consider `COc1ccc(C(=O)N2CCN(CC(=O)N3CCOCC3)CC2)cc1`, for which the IC50 was over 46 µM.
`O=C(O)Cc1sc(-c2ccccc2)nc1-c1ccc(Cl)cc1` gave an IC50 of over 46 µM.
On to `Cl[C@H](CC4)[C@H](OC)C[C@@H]4/C=[C@](C)/[C@@H](OC([C@]2([H])CCCCN12)=O)[C@H](C)[C@@H](O)CC([C@H](CC)/C=C(C)/C[C@H](C)C[C@H](OC)[C@@]([C@@H](OC)C[C@H]3C)([H])O[C@@]3(O)C(C1=O)=O)=O`, for which the IC50 is over 46 µM.
In the case of `C[C@H](NCCc1ccc(O)cc1)[C@H](O)c1ccc(O)cc1.Cl`, the IC50 is over 46 µM.
Take `O=C(O)/C=C/c1ccccc1`: the IC50 was over 46 µM.
The compound `N=C\2/N=C3/O[C@H]1[C@H](O)[C@@H](CO)O[C@H]1N3/C=C/2` displayed an IC50 of over 46 µM.
On to `CCOC(=O)c1ccc(N)cc1`, for which the IC50 was over 46 µM.
`NCc1cccnc1`: the IC50 was over 46 µM.
Compound `CO[C@H]1/C=C/O[C@@]2(C)Oc3c(C)c(O)c4c(O)c(cc([O-])c4c3C2=O)NC(=O)/C(C)=C\C=C\[C@H](C)[C@H](O)[C@@H](C)[C@@H](O)[C@@H](C)[C@H](OC(C)=O)[C@@H]1C.[Na+]` displayed an IC50 of over 46 µM.
`CCN(CC)CCOc1ccc2nc(N(C)C)sc2c1` had an IC50 of over 46 µM.
On to `CCOC(=O)OC(C)OC(=O)[C@@H]1N2C(=O)[C@@H](NC(=O)[C@H](N)c3ccccc3)[C@H]2SC1(C)C.Cl` (stereo not given in full), for which the IC50 was over 46 µM.
`CSc1ccc(C(=O)c2[nH]c(=O)[nH]c2C)cc1` gave an IC50 of over 46 µM.
The figure for `O=c1ccn(C2OC(COP(=O)(O)OC3C(CO)OC(n4ccc(=O)[nH]c4=O)C3O)C(O)C2O)c(=O)[nH]1` (stereo not given) is over 46 µM.
The figure for `CCCCC(CC)COC(=O)C(C#N)=C(c1ccccc1)c1ccccc1` (stereo not given) is over 46 µM; for `CNC1(C)C2CCC(C2)C1(C)C` (stereo not given) it is over 46 µM.
In turn, `Oc1ccc(C2CNCCc3c2cc(O)c(O)c3Cl)cc1` (stereo not given) came in with an IC50 of over 46 µM.
Consider `Cc1c(N(C)C)c(=O)n(-c2ccccc2)n1C`, for which the IC50 is over 46 µM.
Turning to `CC/C=C\C/C=C\C/C=C\C/C=C\C/C=C\C/C=C/CCC(=O)O`, the IC50 was over 46 µM.
Take `NC(=O)c1ncn([C@@H]2O[C@H](CO)[C@@H](O)[C@H]2O)c1N`: the IC50 was over 46 µM.
The compound `CCC(C(=O)OCCOCCN(CC)CC)c1ccccc1.O=C(O)CC(O)(CC(=O)O)C(=O)O` (stereo not given) registered an IC50 of over 46 µM.
Compound `Cc1cccc(C(=O)O)c1O` had an IC50 of over 46 µM.
In the case of `CC(=O)NC(Cc1ccccc1)C(=O)O` (stereo not given), the IC50 is over 46 µM.
The compound `C[C@@H]1C[C@H]2[C@@H]3C[C@H](F)C4=CC(=O)C=C[C@]4(C)[C@@]3(F)[C@@H](O)C[C@]2(C)[C@@]1(O)C(=O)CO` had an IC50 of over 46 µM.
Consider `NS(=O)(=O)c1cc(-c2nnn[nH]2)c(NCc2cccs2)cc1Cl`, for which the IC50 was over 46 µM.
In the case of `O=[N+]([O-])c1ccccc1` it was over 46 µM; in that of `CC=CC(=O)N(CC)c1ccccc1C`, over 46 µM.
`CC=CC=CC(=O)O` yielded an IC50 of over 46 µM.
In the case of `COc6cc7N1C(=O)CC2OC\C=C5\CN3CC[C@@]4(C1[C@H]2[C@H]5C[C@H]34)c7cc6OC` (stereo not given in full) it was over 46 µM; in that of `O=C(N1C)N[C@](C1=O)([C@@]2=CC=CC=C2)CC`, over 46 µM.
With `Cl.NC1CCN(c2cccc(Cl)n2)CC1`, the IC50 was over 46 µM.
`CCOP(=S)(OCC)Oc1cc(C)nc(C(C)C)n1` gave an IC50 of over 46 µM.
Compound `NCCc1ccc(O)cc1` came in with an IC50 of over 46 µM.
In turn, `Cl.N=C(N)NC(=N)N1CCOCC1` gave an IC50 of over 46 µM.
The figure for `CCCCCCCCCCCCCCCC(=O)O` is over 46 µM.
The figure for `Nc1nc(Cl)nc2c1ncn2[C@H]1C[C@H](O)[C@@H](CO)O1` is over 46 µM; for `NCC[C@H](O)C(=O)N[C@@H]1C[C@H](N)[C@@H](O[C@H]2O[C@H](CN)[C@@H](O)[C@H](O)[C@H]2N)[C@H](O[C@@H]2O[C@H](CO)[C@H](O)[C@H]2O)[C@H]1O.O=S(=O)(O)O.O=S(=O)(O)O` it is over 46 µM.
In the case of `CCCCCCCC(=O)OCC(COC(=O)CCCCCCC)OC(=O)CCCCCCC` it was over 46 µM; in that of `O=C(C)N1[C@](C[C@](O)([H])C1)([H])[C@@](O)=O`, over 46 µM.
As to `CCOC(=O)[C@@](C)(N)Cc1ccc(O)c(O)c1.Cl`, the IC50 was over 46 µM.
`Cc1ccc(-c2nc3ccc(C)cn3c2CC(=O)N(C)C)cc1` showed an IC50 of over 46 µM.
On to `CC1(C)S[C@@H]2[C@H](NC(=O)C3(N)CCCCC3)C(=O)N2[C@H]1C(=O)O`, for which the IC50 was over 46 µM.
For the compound `CN[C@H](CC(C)C)C(=O)N[C@H]1C(=O)N[C@@H](CC(N)=O)C(=O)N[C@H]2C(=O)N[C@H]3C(=O)N[C@H](C(=O)N[C@@H](C(=O)O)c4cc(O)cc(O)c4-c4cc3ccc4O)[C@H](O)c3ccc(c(Cl)c3)Oc3cc2cc(c3O[C@@H]2O[C@H](CO)[C@@H](O)[C@H](O)[C@H]2O[C@H]2C[C@](C)(N)C(O)[C@H](C)O2)Oc2ccc(cc2Cl)[C@H]1O.Cl` (stereo not given in full), the IC50 was over 46 µM.
As for `NCC(O)CC(=O)O` (stereo not given), the IC50 is over 46 µM.
For the compound `CCc1nnc(NS(=O)(=O)c2ccc(N)cc2)s1`, the IC50 was over 46 µM.
